Results taken from PMC9144936, “New Cu^+2 Complexes with N-Sulfonamide Ligands: Potential Antitumor, Antibacterial, and Antioxidant Agents” (Molecules, 2022).

Columns and labels:
Assay type in all cases: cell-based
[1] = system: normal fibroblastic epithelial cell line (HFL1); experiment: MTT cytotoxicity assay, HFL1; conditions: HFL1 cells
Description: Three cell lines were used to determine the cytotoxicity of the complexes, a human cervical carcinoma line (HeLa), a human radical growth phase melanoma cell line (WM35), and a normal fibroblastic epithelial cell line (HFL1) using the MTT method. The cells were exposed to C1 and C2 complexes in different concentrations (50, 25, 12.5, 2, and 0.2 µM) at 24, 48, and 72 h. As positive contro, cisplatin was used.
To determine the cytotoxicity of the copper complexes, three cell lines were used: a human cervical carcinoma line (HeLa), a human radical growth phase melanoma cell line (WM35), and a normal fibroblastic epithelial cell line (HFL1). The cell lines were obtained from ATCC (American Type Cell Collection, Manassas, VA 20110-2209, USA) and were maintained in DMEM (Sigma-Aldrich, Saint Louis, Missouri, USA) supplemented with 10% fetal bovine serum (Hyclone), 1 mM glutamine (Sigma-Aldrich), and 1% antibiotic antimycotic 100× (Sigma-Aldrich). The cells were cultured at 37 °C in an atmosphere of 5% CO2 and 95% relative humidity.
The cytotoxicity assays were performed using the MTT assay (3-(4,5-dimethylthiazol-2-yl)-2,5-diphenyl tetrazolium bromide-Sigma Aldrich). Cells were plated at a density of 1 × 10^5 cells/well in 96-well plates for 24 h in normal propagation media. The cultures were then exposed to C1 and C2 complexes in different concentrations (50, 25, 12.5, 2, and 0.2 µM). The complexes were first solubilized in DMSO (Sigma) and then serial dilutions in media were performed until the final concentration of DMSO was less than 1%. As a positive control, cisplatin (Ebewe Pharma Ges.m.b.H. Nfg. KG, Austria) was used, in the same concentrations as the complexes. As a negative control, cell lines cultivated in normal expansion medium with the same amount of DMSO added were used. The cellular viability was determined using the MTT assay at 24, 48, and 72 h, respectively. Formazan particles were solubilized with DMSO and absorbances were determined at 550 nm using a microplate reader (Bio-Rad, Hercules, CA, USA). The cytotoxic activity, expressed as IC50 values representing the complex solution required to inhibit 50% of the cell proliferation, were calculated from the calibration curve by nonlinear regression. Each experiment was carried out in triplicate.

[2] = system: Staphylococcus aureus ATCC 6538P; experiment: Disk diffusion method, S. aureus; conditions: complexes 5 µL of 1 mg/mL; 25 µg Amoxicillin, 5 µg Norfloxacin; 24 h, 37 °C
Text: (§1) The disk diffusion method was used to determine the antibacterial activity of the C1 and C2 copper complexes on four reference microbial strains, two Gram-positive (Staphylococcus aureus and Bacillus cerreus) and two Gram-negative (Escherichia coli and Pseudomonas aeruginosa) strains. The disk diffusion method was used to determine the antibacterial activity of the C1 and C2 copper complexes. The method was adapted for the purposes of the current study, according to the standards developed by the Clinical and Laboratory Standards Institute. Four reference microbial strains, two Gram-positive (Staphylococcus aureus ATCC […] and Bacillus cerreus ATCC 14579) and two Gram-negative (Escherichia coli ATCC 10536 and Pseudomonas aeruginosa ATCC 27853) strains, were used for in vitro susceptibility testing. These reference microbial strains were obtained from the American Type Culture Collection (ATCC, Manassas, VA, USA). As positive controls, Amoxicillin (Oxoid Ltd., Basingstoke, UK) and Norfloxacin (Sigma-Aldrich) were used. For each of the four species, an initial suspension of bacterial cultures was inoculated on nutrient agar plates (Merck KGaA, Darmstadt, Germany), incubated for 24 h at 37 ± 2 °C and resuspended in a physiological saline buffer to a […] concentration (on a 0.5 McFarland scale), and further inoculated on Muëller Hinton agar plates (Merck KGaA, Darmstadt, Germany). […] After inoculation, the medium surface was dried and 8 wells were radially drilled 1.5 cm from the outer edge, 3 cm apart. From aliquot samples of 1 mg/mL of each copper complex dissolved in DMSO and incorporated in sterile liquid medium, 5 μL was placed in each of the 8 wells and left for 30 min to diffuse into the agar plates. The plates were then incubated for 24 h at 37 ± 2 °C. Then, 25 μg Amoxicillin and 5 μg Norfloxacin served as a positive controls, while DMSO 0.75% was used as a negative control. Readings were conducted by measuring the diameter of the inhibition zone (Halo Zone Test, in mm). The germ sensitivity of the copper complexes was estimated by comparing the diameter of the inhibition area to that generated by the regular antibiotics with known inhibition values. […] All tests were triplicated, and the measured diameters of the inhibition zone were expressed (in mm) as mean ± standard deviation.

[3] = system: Bacillus cerreus ATCC 14579; experiment: Disk diffusion method, B. cerreus; conditions: complexes 5 µL of 1 mg/mL; 25 µg Amoxicillin, 5 µg Norfloxacin; 24 h, 37 °C
Text: as §1

[4] = system: Escherichia coli ATCC 10536; experiment: Disk diffusion method, E. coli; conditions: complexes 5 µL of 1 mg/mL; 25 µg Amoxicillin, 5 µg Norfloxacin; 24 h, 37 °C
Text: as §1

[5] = system: Pseudomonas aeruginosa ATCC 27853; experiment: Disk diffusion method, P. aeruginosa; conditions: complexes 5 µL of 1 mg/mL; 5 µg Norfloxacin; 24 h, 37 °C
Text: as §1

Substance | IC50 ([1]; 24 h) [µM] | IC50 ([1]; 48 h) [µM] | IC50 ([1]; 72 h) [µM] | Halo Zone Test (diameter of the inhibition zone) [2] [mm] | Halo Zone Test (diameter of the inhibition zone) [3] [mm] | Halo Zone Test (diameter of the inhibition zone) [4] [mm] | Halo Zone Test (diameter of the inhibition zone) [5] [mm]
[Cu(N-(5-(4-Methylphenyl)-[1,3,4]-Thiadiazole-2-yl) Naphtalenesulfonamidate)2(H2O)3] [C1] | 44.7 ± 0.51 | 7.38 ± 0.12 | 3.75 ± 0.15 | 13 ± 0.17 | 11 ± 0.25 | 14 ± 0.11 | 15 ± 0.32
[Cu(N-(5-Ethyl--[1,3,4]-Thiadiazole-2-yl) Naphtalenesulfonamidate)2(py)2(H2O)] [C2] | 18 ± 1.08 | 5.55 ± 0.22 | 2.03 ± 0.04 | 15 ± 0.44 | 12 ± 0.34 | 16 ± 0.21 | 19 ± 0.19
